Measurements reported in ChEMBL document CHEMBL5029194, “Discovery and Optimization of 7-Alkylidenyltetrahydroindazole-Based Acylsulfonamide EP3 Antagonists” (ACS Med Chem Lett, 2022).
Active and inactive are the calls of the source. The calls are words filed in the database; no cut-off is given here.

Legend:
[1] = Cmax in Sprague-Dawley rat at 10 mg/kg, po measured up to 24 hrs by LC-MS-MS analysis; assay type: ADME, organism-based; set-up: route oral, dose 10 mg/kg, time <=24; conditions: in vivo
[2] = Half life in Sprague-Dawley rat at 2 mg/kg, iv measured up to 24 hrs by LC-MS-MS analysis; assay type: ADME, organism-based; conditions: in vivo
[3] = Clearance in Sprague-Dawley rat at 2 mg/kg, iv measured up to 24 hrs by LC-MS-MS analysis; assay type: ADME, organism-based; conditions: in vivo
[4] = Volume of distribution at steady state in Sprague-Dawley rat at 2 mg/kg, iv measured up to 24 hrs by LC-MS-MS analysis; assay type: ADME, organism-based; conditions: in vivo, read-out: Vdss
[5] = Half life in Sprague-Dawley rat at 10 mg/kg, po measured up to 24 hrs by LC-MS-MS analysis; assay type: ADME, organism-based; conditions: in vivo
[6] = AUC(0 to 24 hrs) in Sprague-Dawley rat at 10 mg/kg, po measured up to 24 hrs by LC-MS-MS analysis; assay type: ADME, organism-based; set-up: route oral, dose 10 mg/kg, time <=24; conditions: in vivo
[7] = Oral bioavailability in Sprague-Dawley rat at 10 mg/kg measured up to 24 hrs by LC-MS-MS analysis; assay type: ADME, organism-based; conditions: in vivo
[8] = Cmax in Sprague-Dawley rat at 10 mg/kg, po measured up to 7 hrs by LC-MS-MS analysis; assay type: ADME, organism-based; set-up: route oral, dose 10 mg/kg, time <=7; conditions: in vivo
[9] = AUClast in Sprague-Dawley rat at 10 mg/kg, po measured up to 7 hrs by LC-MS-MS analysis; assay type: ADME, organism-based; set-up: route oral, dose 10 mg/kg, time <=7; conditions: in vivo
[10] = biological target: T1, Prostaglandin E2 receptor EP1 subtype (Homo sapiens, UniProt P34995); test: Binding affinity to human EP1 receptor assessed as inhibition constant
T1 sequence (P34995 whole entry): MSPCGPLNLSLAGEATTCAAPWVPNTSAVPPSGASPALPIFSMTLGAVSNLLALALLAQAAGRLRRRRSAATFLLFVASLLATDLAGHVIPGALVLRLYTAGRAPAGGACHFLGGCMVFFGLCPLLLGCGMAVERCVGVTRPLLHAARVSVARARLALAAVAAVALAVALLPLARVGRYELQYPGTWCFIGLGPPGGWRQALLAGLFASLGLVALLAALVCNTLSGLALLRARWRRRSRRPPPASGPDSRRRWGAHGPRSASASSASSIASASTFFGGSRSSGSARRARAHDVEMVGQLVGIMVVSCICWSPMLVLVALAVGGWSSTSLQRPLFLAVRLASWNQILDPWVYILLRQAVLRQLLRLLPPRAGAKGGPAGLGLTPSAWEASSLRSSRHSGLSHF

[11] = biological target: Prostaglandin E2 receptor EP2 subtype (Homo sapiens, UniProt P43116); test: Binding affinity to human EP2 receptor assessed as inhibition constant
Prostaglandin E2 receptor EP2 subtype, sequence (P43116 whole entry): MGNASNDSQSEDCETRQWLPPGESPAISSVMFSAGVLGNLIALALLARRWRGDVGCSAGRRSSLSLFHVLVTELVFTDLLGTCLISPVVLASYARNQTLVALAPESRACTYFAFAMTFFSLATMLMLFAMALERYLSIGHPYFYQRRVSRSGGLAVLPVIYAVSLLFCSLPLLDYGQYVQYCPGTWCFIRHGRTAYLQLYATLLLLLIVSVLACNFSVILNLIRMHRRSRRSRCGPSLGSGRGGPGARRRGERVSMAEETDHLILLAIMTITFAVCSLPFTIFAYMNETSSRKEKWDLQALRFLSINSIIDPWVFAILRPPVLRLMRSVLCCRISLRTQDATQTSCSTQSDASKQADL

[12] = biological target: Prostaglandin E2 receptor EP4 subtype (Homo sapiens, UniProt P35408); test: Binding affinity to human EP4 receptor assessed as inhibition constant
Prostaglandin E2 receptor EP4 subtype, sequence (P35408 whole entry): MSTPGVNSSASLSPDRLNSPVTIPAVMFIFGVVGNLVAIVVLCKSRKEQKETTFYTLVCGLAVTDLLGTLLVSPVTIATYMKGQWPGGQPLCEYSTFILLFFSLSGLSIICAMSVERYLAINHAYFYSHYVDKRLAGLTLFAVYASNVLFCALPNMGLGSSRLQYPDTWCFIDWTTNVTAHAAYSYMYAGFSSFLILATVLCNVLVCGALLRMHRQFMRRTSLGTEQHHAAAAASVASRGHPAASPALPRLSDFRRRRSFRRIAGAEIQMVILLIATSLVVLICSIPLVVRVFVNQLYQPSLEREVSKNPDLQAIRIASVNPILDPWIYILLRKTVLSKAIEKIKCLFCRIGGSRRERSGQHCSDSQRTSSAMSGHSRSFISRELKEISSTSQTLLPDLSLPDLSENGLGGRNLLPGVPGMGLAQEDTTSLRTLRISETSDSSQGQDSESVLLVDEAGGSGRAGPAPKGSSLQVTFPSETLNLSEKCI

[13] = biological target: T2, Prostaglandin E2 receptor EP3 subtype (Rattus norvegicus, UniProt P34980); test: Binding affinity to rat EP3 receptor assessed as inhibition constant
T2 sequence (P34980 whole entry): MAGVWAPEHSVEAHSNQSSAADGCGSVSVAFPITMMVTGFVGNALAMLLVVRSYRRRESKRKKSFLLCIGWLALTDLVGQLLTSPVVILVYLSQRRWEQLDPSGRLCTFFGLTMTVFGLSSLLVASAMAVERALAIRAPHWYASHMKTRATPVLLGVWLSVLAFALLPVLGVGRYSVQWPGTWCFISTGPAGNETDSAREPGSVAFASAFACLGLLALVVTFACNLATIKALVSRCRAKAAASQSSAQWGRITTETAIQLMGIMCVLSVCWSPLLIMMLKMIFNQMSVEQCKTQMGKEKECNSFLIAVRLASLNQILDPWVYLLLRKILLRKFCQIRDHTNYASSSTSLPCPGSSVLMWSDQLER

Rattus norvegicus = test: In vivo antagonist activity at […] receptor in Sprague-Dawley rat assessed as reversal of sulprostone induced reduction in circulating insulin levels at 10 times Ki, administered as iv infusion measured up to 30 mins after glucose administration by glucose tolerance test; assay type: functional, organism-based; conditions: time min <=30
[14] = Free plasma concentration in Sprague-Dawley rat at 10 times Ki administered as iv infusion measured after 2 to 50 mins; assay type: ADME, organism-based; conditions: in vivo, time 2-50 min
[15] = AUClast in Sprague-Dawley rat at 10 mg/kg, po measured up to 24 hrs by LC-MS-MS analysis; assay type: ADME, organism-based; set-up: route oral, dose 10 mg/kg, time <=24; conditions: in vivo

Row | SMILES | Cmax [1] [nM] | half-life [2] [h] | clearance [3] [mL/min/kg] | Vd [4] [L/kg] | half-life [5] [h] | AUC(0-t) [6] [µM·h] | bioavailability [7] [%] | Cmax [8] [nM] | AUC(0-t) at 7 h [9] [µM·h] | further results
1 | O=C(NS(=O)(=O)c1cc(Cl)c(Cl)s1)OC/C=C1\CCCc2cnn(Cc3ccc(Cl)cc3Cl)c21 | 130 | 2.1 | 71.7 | 3.45 | 2.3 | 0.89 | 24 |  |  | 
2 | O=C(NS(=O)(=O)c1ccc(Cl)cc1)OC/C=C1\CCCc2cnn(Cc3ccc(Cl)cc3Cl)c21 | 750 | 3.5 | 21.3 | 4.61 | 3.6 | 7.43 | 46 |  |  | 
3 | O=C(NC/C=C1\CCCc2cnn(-c3ccc(C(F)(F)F)cc3)c21)NS(=O)(=O)c1cc(Cl)c(Cl)s1 |  |  |  |  |  |  |  | 1540 | 7.39 | 
4 | O=C(NC/C=C1\CCCc2cnn(C3CCN(c4ccc(F)cc4)CC3)c21)NS(=O)(=O)c1cc(Cl)c(Cl)s1 |  |  |  |  |  |  |  | 130 | 0.73 | 
5 | O=C(NC/C(F)=C1\CCCc2cnn(-c3ccc(C(F)(F)F)cc3)c21)NS(=O)(=O)c1cc(Cl)c(Cl)s1 |  |  |  |  |  |  |  | 700 | 3.68 | 
6 | Cc1ncc(S(=O)(=O)NC(=O)NC/C=C2\CCCc3cnn(Cc4ccc(Cl)cc4Cl)c32)s1 |  |  |  |  |  |  |  | 510 | 2.4 | 
7 | O=C(NC/C=C1\CCCc2cnn(Cc3ccc(Cl)cc3Cl)c21)NS(=O)(=O)c1cc(Cl)c(Cl)s1 | 1670 | 0.79 | 81.2 | 2.21 | 2.8 | 2.75 | 84 |  |  | AUC(0-t) at 24 h [15]: 2.75 µM·h

Second part, led by results:

Row | Cmax [1] [nM] | half-life [2] [h] | clearance [3] [mL/min/kg] | Vd [4] [L/kg] | half-life [5] [h] | AUC(0-t) [6] [µM·h] | bioavailability [7] [%] | Cmax [8] [nM] | AUC(0-t) at 7 h [9] [µM·h] | SMILES | further results
8 | 9950 | 5.9 | 1.66 | 0.491 | 3.2 | 96.2 | 55 | 11200 | 57.8 | Cc1cc(S(=O)(=O)NC(=O)NC/C(F)=C2\CCCc3cnn(Cc4ccc(Cl)cc4Cl)c32)sc1Cl | 
9 | 1110 | 1.9 | 14.9 | 1.44 | 2.8 | 5.27 | 25 |  |  | O=C(NC/C=C1\CCCc2cnn(Cc3ccc(Cl)cc3Cl)c21)NS(=O)(=O)c1ccc(Cl)cc1 | Ki [10]: 3.5 µM; Ki [11]: > 10 µM; Ki [12]: > 10 µM; Ki [13]: 0.0036 µM; Activity (Rattus norvegicus): Active; Cp(f) [14]: 36 nM; AUC(0-t) at 24 h [15]: 5.27 µM·h
10 |  |  |  |  |  |  |  | 3820 | 16.6 | O=C(NC/C(F)=C1\CCCc2cnn(Cc3ccc(Cl)cc3Cl)c21)NS(=O)(=O)c1cc(Cl)c(Cl)s1 | 
11 | 9390 | 6.2 | 2.6 | 0.346 | 2.9 | 49 | 44 | 7100 | 31.9 | COc1ccc(S(=O)(=O)NC(=O)NC/C(F)=C2\CCCc3cnn(Cc4ccc(Cl)cc4Cl)c32)cc1Cl | 
12 |  |  |  |  |  |  |  | 4750 | 10.8 | COc1ccc(Cl)cc1S(=O)(=O)NC(=O)NC/C(F)=C1\CCCc2cnn(Cc3ccc(Cl)cc3Cl)c21 | 
